Our source for the Ki and melting point values is patent US20030060498A1, “5-arylsulfonyl indoles useful for treating disease” (priority 2001, published 2003).

Where a name gives a salt, the structure may show the parent alone. Read-outs that look alike come from different tables or passages of the source.

The target of data set [1] is T1, cloned human 5-HT6 receptor (Homo sapiens, UniProt P50406).
T1 construct: host or cells: HeLa cells (G-418 selection); membrane preparation
The data set can be described thus: 5-HT6 receptor binding assay ([3H]-LSD radioligand, SPA beads). As to the method: 5-HT6 Receport Binding Assay
Growth of Cells and Membrane Preparation:
Hela cells containing the cloned human 5-HT6 receptor were acquired from Dr. David R. Sibley's laboratory in National Institute of Health (see Sibley, D. R., J. Neurochemistry, 66, 47-56, 1996). Cells were grown in high glucose Dulbecco's modified Eagle's medium, supplemented with L-glutamine, 0.5% sodium pyruvate, 0.3% penicillin-streptomycin, 0.025% G-418 and 5% Gibco fetal bovine serum and then were harvested, when confluent, in cold phosphate buffered saline.
Harvested intact cells were washed once in cold phosphate-buffered saline. The cells were pelleted and resuspended in 100 ml of cold 50 mM Tris, 5 mM EDTA and 5 mM EGTA, pH 7.4. Homogenization was with a Vir Tishear generator, 4 cycles for 30 seconds each at setting 50. The homogenized cells were centrifuged at […] for 10 minutes and the supernatant was removed. The pellet was resuspended in 100 ml of the above buffer and rehomogenized for 2 cycles. The rehomogenized cells were then centrifuged at […] for 10 minutes and the supernatant was removed. The combined supernatant (200ml) was centrifuged at 23,000 RPM (80,000×g) for 1 hour in a Beckman Rotor (42.1 Ti). The membrane pellet was resuspended in […] of assay buffer containing HEPES 20 mM, MgCl2 10 mM, NaCl 150 mM, EDTA 1 mM, pH 7.4 and stored frozen in aliqouts at −70° C.
5-HT6 Receptor Binding Assay
The radioligand binding assay used [^3H]-lysergic acid diethylamide (LSD). The assay was carried out in Wallac 96-well sample plates by the addition of 11 μl of the test sample at the appropriate dilution (the assay employed 11 serial concentrations of samples run in duplicate), 11 μl of radioligand, and 178 μl of a washed mixture of WGA-coated SPA beads and membranes in binding buffer. The plates were shaken for about 5 minutes and then incubated at room temperature for 1 hour. The plates were then loaded into counting cassettes and counted in a Wallac MicroBeta Trilux scintillation counter.
Binding Constant (Ki) Determination
Eleven serial dilutions of test compounds were distributed to assay plates using the PE/Cetus Pro/Pette pipetter. These dilutions were, followed by radioligand and the bead-membrane mixture prepared as described above. The specifically bound cpm obtained were fit to a one-site binding model using GraphPad Prism ver. 3.0. Estimated IC50 values were converted to Ki values using the Cheng-Prusoff equation (Cheng, Y. C. et al., Biochem. Pharmacol., 22, 3099-108, 1973).

T1 sequence (P50406 whole entry): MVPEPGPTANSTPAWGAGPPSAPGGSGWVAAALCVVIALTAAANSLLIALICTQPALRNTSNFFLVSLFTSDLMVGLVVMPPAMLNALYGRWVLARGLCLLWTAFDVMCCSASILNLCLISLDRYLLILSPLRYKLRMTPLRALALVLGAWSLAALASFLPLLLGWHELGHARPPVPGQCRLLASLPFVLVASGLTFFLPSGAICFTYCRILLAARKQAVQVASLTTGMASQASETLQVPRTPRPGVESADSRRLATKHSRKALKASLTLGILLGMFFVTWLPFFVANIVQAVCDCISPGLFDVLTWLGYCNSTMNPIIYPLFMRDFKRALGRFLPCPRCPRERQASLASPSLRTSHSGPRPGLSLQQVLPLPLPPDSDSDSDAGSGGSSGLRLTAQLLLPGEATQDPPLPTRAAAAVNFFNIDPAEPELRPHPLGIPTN

In the case of `Cc1c(CCN)c2cc(S(=O)(=O)c3cc(F)cc(F)c3)ccc2n1C.Cl` [Example 19, 2-{5-[(3,5-difluorophenyl)sulfonyl]-1,2-dimethyl-1H-indol-3-yl}ethanamine Hydrochloride], the melting point lay within 288.6 to 290.5 °C. Further, in data set [1], the Ki is 5.6 nM.
The matching figures for `COc1cccc(S(=O)(=O)c2ccc3c(c2)c(CCN)c(C)n3C)c1.Cl` [Example 16, 2-{5-[(3-methoxyphenyl)sulfonyl]-1,2-dimethyl-1H-indol-3-yl}ethanamine Hydrochloride]: 269.5 to 272.4 °C and 3.4 nM.
Take `CNCCc1c(C)n(C)c2ccc(S(=O)(=O)c3cccc4ccccc34)cc12.Cl`: the melting point was > 141 °C (dec.).
Molecule `Cl.Cn1cc(CCN)c2cc(S(=O)(=O)c3ccccc3)ccc21` [Example 1, 2-[1-methyl-5-(phenylsulfonyl)-1H-indol-3-yl]ethanamine Hydrochloride] showed a melting point of 285.3 to 292 °C. For the same molecule, the inhibition constant Ki in data set [1] was determined as 1.5 nM.
The matching figures for `Cc1ccc(S(=O)(=O)c2ccc3c(c2)c(CCN)c(C)n3C)cc1.Cl` [Example 10, 2-{1,2-dimethyl-5-[(4-methylphenyl)sulfonyl]-1H-indol-3-yl}ethanamine Hydrochloride]: 168 to 172 °C and 22 nM.
The matching figures for `Cc1[nH]c2ccc(S(=O)(=O)c3cc(F)cc(F)c3)cc2c1CCN.Cl` [Example 18, 2-{5-[(3,5-difluorophenyl)sulfonyl]-2-methyl-1H-indol-3-yl}ethanamine Hydrochloride]: more than 280 °C and 66 nM.
The molecule `Cc1[nH]c2ccc(S(=O)(=O)c3cccc4ccccc34)cc2c1CCN` [Example 21, 2-[2-methyl-5-(1-naphthylsulfonyl)-1H-indol-3-yl]ethanamine Hydrochloride] returned a Ki in data set [1] of 0.9 nM.
For the molecule `Cc1ccc(S(=O)(=O)c2ccc3c(c2)c(CCN)cn3C)cc1.Cl` [Example 7, 2-{1-methyl-5-[(4-methylphenyl)sulfonyl]-1H-indol-3-yl}ethanamine Hydrochloride], the melting point was 186.3 to 190.2 °C. This molecule yielded a Ki in data set [1] of 3.3 nM.
As for `CNCCc1c(C)n(C)c2ccc(S(=O)(=O)c3ccc(C(F)(F)F)cc3)cc12.Cl` [Example 14, 2-(1,2-dimethyl-5-{[4-(trifluoromethyl)phenyl]sulfonyl}-1H-indol-3-yl)-N-methylethanamine Hydrochloride], the melting point lay within 189.1 to 193.7 °C. For the same molecule, affinity in data set [1] was put at a Ki of 18 nM.
Taken in the same sequence, the figures for `CNCCc1c(C)n(C)c2ccc(S(=O)(=O)c3ccccc3)cc12.Cl` [Example 5, 2-[1,2-dimethyl-5-(phenylsulfonyl)-1H-indol-3-yl]-N-methylethanamine Hydrochloride] were 266.8 to 268.2 °C and 9 nM.
The matching figures for `CNCCc1c(C)n(C)c2ccc(S(=O)(=O)c3cc(F)cc(F)c3)cc12.Cl` [Example 20, 2-{5-[(3,5-difluorophenyl)sulfonyl]-1,2-dimethyl-1H-indol-3-yl}-N-methylethanamine Hydrochloride]: 253.5 to 257.8 °C and 4.6 nM.
For the molecule `Cc1c(CCN)c2cc(S(=O)(=O)c3cccc4ccccc34)ccc2n1C.Cl` [Example 22, 2-[1,2-dimethyl-5-(1-naphthylsulfonyl)-1H-indol-3-yl]ethanamine Hydrochloride], the melting point is > 175 °C (dec.). The molecule also gave a Ki in data set [1] of 3.1 nM.
Taken in the same sequence, the figures for `CNCCc1c(C)n(C)c2ccc(S(=O)(=O)c3cccc(OC)c3)cc12.Cl` [Example 17, 2-{5-[(3-methoxyphenyl)sulfonyl]-1,2-dimethyl-1H-indol-3-yl}-N-methylethanamine Hydrochloride] were 192.4 to 196 °C and 10 nM.
The matching figures for `CNCCc1c(C)n(C)c2ccc(S(=O)(=O)c3ccc(C)cc3)cc12.Cl` [Example 11, 2-{1,2-dimethyl-5-[(4-methylphenyl)sulfonyl]-1H-indol-3-yl}-N-methylethanamine Hydrochloride]: 259.7 to 262.3 °C and 15 nM.
Taken in the same sequence, the figures for `CNCCc1c(C)[nH]c2ccc(S(=O)(=O)c3ccccc3)cc12` [Example 3, N-methyl-2-[2-methyl-5-(phenylsulfonyl)-1H-indol-3-yl]ethanamine] were 164.6 to 166 °C and 37 nM.
With `Cc1c(CCN)c2cc(S(=O)(=O)c3ccccc3)ccc2n1C.Cl` [Example 4, 2-[1,2-dimethyl-5-(phenylsulfonyl)-1H-indol-3-yl]ethanamine Hydrochloride], the melting point was in the range of 155 to 158.3 °C. This molecule displayed a Ki in data set [1] of 4 nM.
`Cc1c(CCN)c2cc(S(=O)(=O)c3ccc(C(F)(F)F)cc3)ccc2n1C.Cl` [Example 13, 2-(1,2-dimethyl-5-{[4-(trifluoromethyl)phenyl]sulfonyl}-1H-indol-3-yl)ethanamine Hydrochloride]: the melting point is more than 280 °C. This molecule also returned an inhibition constant (Ki) in data set [1] of 36 nM.
In the case of `Cc1[nH]c2ccc(S(=O)(=O)c3cccc4ccccc34)cc2c1CCN` (as salt: hydrochloride) [Example 21, 2-[2-methyl-5-(1-naphthylsulfonyl)-1H-indol-3-yl]ethanamine Hydrochloride], the melting point is more than 280 °C.
Turning to `Cc1ccc(S(=O)(=O)c2ccc3[nH]c(C)c(CCN)c3c2)cc1.Cl` [Example 9, 2-{2-methyl-5-[(4-methylphenyl)sulfonyl]-1H-indol-3-yl}ethanamine Hydrochloride], the melting point was more than 275 °C. This molecule also yielded a Ki in data set [1] of 308 nM.
The matching figures for `COc1cccc(S(=O)(=O)c2ccc3[nH]c(C)c(CCN)c3c2)c1.Cl` [Example 15, 2-{5-[(3-methoxyphenyl)sulfonyl]-2-methyl-1H-indol-3-yl}ethanamine Hydrochloride]: 300 to 302 °C and 209 nM.
Turning to `Cc1[nH]c2ccc(S(=O)(=O)c3ccc(C(F)(F)F)cc3)cc2c1CCN.Cl` [Example 12, 2-(2-methyl-5-{[4-(trifluoromethyl)phenyl]sulfonyl}-1H-indol-3-yl)ethanamine Hydrochloride], the melting point was more than 275 °C. Moreover, the inhibition constant (Ki) in data set [1] ([3H]-LSD, membranes of Hela cells containing the cloned human 5-HT6 receptor, IC50 converted by Cheng-Prusoff, average, read-out: Ki) was determined as 146 nM.
Turning to `Cc1c(CCN(C)C)c2cc(S(=O)(=O)c3ccccc3)ccc2n1C` [Example 6, 2-[1,2-dimethyl-5-(phenylsulfonyl)-1H-indol-3-yl]-N,N-dimethylethanamine], the melting point is 169.6 to 171.9 °C. The same molecule yielded a Ki in data set [1] of 1.8 nM.
In turn, `CNCCc1cn(C)c2ccc(S(=O)(=O)c3ccc(C)cc3)cc12.Cl` [Example 8, N-methyl-2-{1-methyl-5-[(4-methylphenyl)sulfonyl]-1H-indol-3-yl}ethanamine hydrochloride] came in with a melting point of 275 to 277.6 °C. Also, the Ki in data set [1] came out at 7.6 nM.
As to `Cc1[nH]c2ccc(S(=O)(=O)c3ccccc3)cc2c1CCN.Cl` [Example 2, 2-[2-methyl-5-(phenylsulfonyl)-1H-indol-3-yl]ethanamine Hydrochloride], the melting point was more than 280 °C. This molecule returned a Ki in data set [1] of 38 nM.
